In paper PMC7445415 (2020):

What was measured:
[1] = test system: poly(A)-poly(U) (RNA, polymer) A/U; experiment: UV melting, 260 nm; settings: Na+ (sodium cacodylate, I = 0.05 M); cacodylate pH 5.0; r = [NDI]/[polynucleotide] = 0.3; per base
[2] = test system: poly(dA-dT)2 (DNA, polymer) AT; experiment: UV melting, 260 nm; settings: Na+ (sodium cacodylate, I = 0.05 M); cacodylate pH 5.0; r = [NDI]/[polynucleotide] = 0.3; per base
[3] = test system: poly(A)-poly(U) (RNA, polymer) A/U; experiment: ITC, one set of sites; settings: Na+ (sodium cacodylate, I = 0.05 M); cacodylate pH 5.0, 298 K (293 K in Experimental); n fixed 0.2; polynucleotide as nucleobases; per base
[4] = test system: poly(dA-dT)2 (DNA, polymer) AT; experiment: ITC, one set of sites; settings: Na+ (sodium cacodylate, I = 0.05 M); cacodylate pH 5.0, 298 K (293 K in Experimental); n fixed 0.2; polynucleotide as nucleobases; per base
[5] = test system: poly(dG-dC)2 (DNA, polymer) GC; experiment: ITC, one set of sites; settings: Na+ (sodium cacodylate, I = 0.05 M); cacodylate pH 5.0, 298 K (293 K in Experimental); n fixed 0.2; polynucleotide as nucleobases; per base
[6] = test system: poly(A)-poly(U) (RNA, polymer) A/U; experiment: fluorescence titration, Scatchard fit; settings: Na+ (sodium cacodylate, I = 0.05 M); cacodylate pH 5.0, 25 °C; 1 µM compound; n fixed 0.2; polynucleotide as nucleobases; per base
[7] = test system: poly(dA-dT)2 (DNA, polymer) AT; experiment: fluorescence titration, Scatchard fit; settings: Na+ (sodium cacodylate, I = 0.05 M); cacodylate pH 5.0, 25 °C; 1 µM compound; n fixed 0.2; polynucleotide as nucleobases; per base
[8] = test system: poly(dG-dC)2 (DNA, polymer) GC; experiment: fluorescence titration, Scatchard fit; settings: Na+ (sodium cacodylate, I = 0.05 M); cacodylate pH 5.0, 25 °C; 1 µM compound; n fixed 0.2; polynucleotide as nucleobases; per base

| ∆Tm [1] | ∆Tm [2] | logKs [3] | logKs [4] | logKs [5] | logKs [6] | logKs [7] | logKs [8] | Structure (SMILES) |
| --- | --- | --- | --- | --- | --- | --- | --- | --- |
| +17.5 ± 0.5 °C | +21.6 ± 0.5 °C | 5.9 | 6.3 | 6.7 | 6.0 | 6.0 | 7.2 | C[N+](C)(C)CCCN1C(=O)c2cc(NC[C@H](N)C(=O)O)c3c4c(cc(Cl)c(c24)C1=O)C(=O)N(CCC[N+](C)(C)C)C3=O |
| +25.1 ± 0.5 °C | +28.2 ± 0.5 °C | 6.6 | 6.8 | 6.7 | 6.4 | 6.1 | 6.6 | C[N+](C)(C)CCCN1C(=O)c2cc(NCCCC[C@H](N)C(=O)O)c3c4c(cc(Cl)c(c24)C1=O)C(=O)N(CCC[N+](C)(C)C)C3=O |
| +30.3 ± 0.5 °C | +35.4 ± 0.5 °C | 6.7 | 6.4 | 6.5 | 6.2 | 6.6 | 6.4 | C[N+](C)(C)CCCN1C(=O)c2cc(NCC[N+](C)(C)C)c3c4c(cc(Cl)c(c24)C1=O)C(=O)N(CCC[N+](C)(C)C)C3=O |
